≈ marks a conversion by molar mass, not a printed value.
Legend:
[1] = Bocillin-FL fluorescence polarization competition binding assay, A. baumannii PBP3; conditions: fluorescence polarization competition binding assay using Bocillin-FL; column 3; read-out: 4. baumannii PBP1a Potency
In short: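 A. baumannii PBP2 (2.5 μM) and PBP3 (0.2 μM) were run in 25 mM Tris pH 8.0 buffer with Tween 20; E. coli PBP3 (1.5 μM) and N. gonorrhoeae PBP2 ([…]) in 50 mM Hepes pH 8.0 buffer.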

[2] = target: T1, N. gonorrhoeae PBP2 (Neisseria gonorrhoeae, UniProt P08149); assay: Bocillin-FL fluorescence polarization competition binding assay, N. gonorrhoeae PBP2; conditions: fluorescence polarization competition binding assay using Bocillin-FL; read-out: N. gonorrhoeae PBP2 Potency
T1 construct: made in house
T1 sequence (P08149 whole entry): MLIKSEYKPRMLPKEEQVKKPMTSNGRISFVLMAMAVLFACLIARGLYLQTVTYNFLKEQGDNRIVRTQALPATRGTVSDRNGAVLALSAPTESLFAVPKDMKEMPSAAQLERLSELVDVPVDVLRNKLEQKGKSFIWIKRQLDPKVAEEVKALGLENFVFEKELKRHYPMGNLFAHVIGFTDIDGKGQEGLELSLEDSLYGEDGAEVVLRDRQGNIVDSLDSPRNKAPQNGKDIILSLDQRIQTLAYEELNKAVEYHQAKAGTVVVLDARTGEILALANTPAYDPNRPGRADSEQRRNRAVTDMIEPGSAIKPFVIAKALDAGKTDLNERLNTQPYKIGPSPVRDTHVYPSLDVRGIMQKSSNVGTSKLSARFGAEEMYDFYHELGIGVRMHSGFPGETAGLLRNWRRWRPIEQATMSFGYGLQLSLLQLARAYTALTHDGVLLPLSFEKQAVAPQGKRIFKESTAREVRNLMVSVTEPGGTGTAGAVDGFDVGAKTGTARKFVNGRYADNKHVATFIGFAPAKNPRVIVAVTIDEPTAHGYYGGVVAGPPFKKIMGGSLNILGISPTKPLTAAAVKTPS
Text: Example I: Experimental Method for Penicillin-Binding Protein Binding Assays with Bocillin-FL Via Fluorescence Polarization
To determine the ability of boronic acid-based test PBP inhibitors to bind Penicillin Binding Proteins (PBPs), Bocillin-FL (fluorescently-labeled penicillin V; ThermoFisher Scientific) was used in a fluorescence polarization (FP) competition binding assay to assess inhibitor binding to PBP2, PBP3 or PBP4 from Escherichia coli (K12), PBP3 from Pseudomonas aeruginosa (PA01), PBP1a, PBP2 and PBP3 from Acinetobacter baumannii (ATCC 19606), and PBP2 from Neiserria gonorrheae (FA19). PBPs were cloned and purified as described previously (E. coli PBPs, King, D. T, et al., ACS Infectious Diseases 2015, 1, 175-184; P. aeruginosa PBP3, Han et. al., PNAS 2010, 107 (51), 22002-22007; A. baumannii PBPs, Penwell et. al., Antimicrob. Agents Chemother. 2015, 59 (3), 1680-1689; N. gonorrhoeae PBP2, Singh et. al., J Biol. Chem. 2019, 294 (38), 14020-14032). To establish assay conditions for competition binding, enzyme titration/saturation binding experiments were initially performed. Bocillin-FL was prepared at 0.2 μM in a buffer comprised of 50 mM Hepes (pH 8.0), 300 mM NaCl and 5% (v/v) glycerol for reactions with E. coli, P. aeruginosa and N. gonorrhoeae PBPs, and 25 mM Tris (pH 8.0), 200 mM NaCl and 10% (v/v) glycerol and 0.005% (v/v) Tween 20 for reactions with A. baumannii PBPs. Saturation binding was performed by mixing 40 μl of PBP solutions ranging in concentrations from 0-24 μM with 40 μl of the 0.2 μM Bocillin-FL solution, in individual wells of a black 384-well microplate. FP was measured immediately upon mixing (Excitation, 490 nm; Emission, 520 nm; g-factor, 0.96), using a Cytation3 (BioTek) microplate reader and measured continuously for up to 120 minutes. […] The competition binding assay (80 μl final volume) was validated using beta-lactams and PBPs at final concentrations of: 1.5 μM, E. coli PBP3; 0.75 μM, P. aeruginosa PBP3; 1 μM A. baumannii PBP1a; 2.5 μM A. baumannii PBP2; 0.2 μM A. baumannii PBP3; and […] N. gonorrhoeae PBP2. Bocillin-FL was at 0.1 μM (0.05 μM with A. baumannii PBP1a) and beta-lactam concentrations ranged from 0-1000 μM. […] Bocillin-FL was added and the FP immediately measured for up to 60 minutes (90 minutes for E. coli PBP2). […] The beta-lactam potency was reported as the concentration of beta-lactam required to reduce the amount of PBP bound-Bocillin-FL by 50% (EC50). […] Binding assays for boronic acid PBP inhibitors were performed in an identical fashion for the respective PBPs

[3] = test system: A. baumannii ATCC 19606; assay: Broth microdilution MIC in iron-depleted CAMHB (IDM); format: cell-based; conditions: Acinetobacter baumannii, ATCC19606, read-out: Minimum Inhibitory Concentration, ATCC 19606
In short: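 CLSI broth microdilution in iron-depleted CAMHB (Chelex 100-treated, Ca, Mg and 10 μM Zn re-added, pH 7.3). Inoculum was 2-8×10^5 CFU/mL from 3-5 h IDM cultures. Plates were incubated at 37° C for 20-24 h (Acinetobacter) or 16-20 h (Pseudomonas), and MIC was read visually as the lowest concentration without growth.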

[4] = test system: P. aeruginosa CDC-0110; assay: as above; format: cell-based; conditions: Pseudomonas aeruginosa, CDC0110, read-out: Minimum Inhibitory Concentration, P. aeruginosa CDC-0110
In short: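 MIC is the lowest well showing no visible growth after 16-20 h at 37 °C, starting from 2-8×10^5 CFU/mL in 2-fold serial compound dilutions. Medium: cation-adjusted Mueller Hinton broth iron-depleted with Chelex 100, supplemented back with Ca, Mg and Zn, pH 7.3; CLSI protocol.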

[5] = test system: A. baumannii CDC-0045 producing TEM-1D, OXA-23, and OXA-69; assay: as above; format: cell-based; conditions: Acinetobacter baumannii, read-out: Minimum Inhibitory Concentration, CDC-0045

Row | Compound | EC50 [2] [µM] | other results
1 | NCCN1CCN(C(=O)N[C@H](C(=O)N[C@H]2Cc3cccc(C(=O)O)c3OB2O)c2c(F)cc(O)cc2F)C(=O)C1=O (single isomer, unassigned) [Example 110] |  | EC50 [1]: > 100 µM
2 | CCN1CCN(C(=O)N[C@H](C(=O)N[C@H]2Cc3cccc(C(=O)O)c3OB2O)c2ccc(C(=O)O)cc2)C(=O)C1=O (single isomer, unassigned) [Example 123] | < 10 | 
3 | CCN1CCN(C(=O)N[C@@H](C(=O)N[C@H]2Cc3cccc(C(=O)O)c3OB2O)c2ccc(C(=O)O)cc2)C(=O)C1=O (single isomer, unassigned) [Example 124] | < 10 | EC50 [1]: < 10 µM
4 | CCN1CCN(C(=O)N[C@H](C(=O)N[C@H]2Cc3ccc(F)c(C(=O)O)c3OB2O)c2c(F)cc(O)c(O)c2Cl)C(=O)C1=O (single isomer, unassigned) [Example 125] |  | MIC [3]: > 128 µg/mL; EC50 [1]: > 100 µM; MIC [4]: > 128 µg/mL; MIC [5]: > 128 µg/mL
5 | NC1(CN2CCN(C(=O)N[C@@H](C(=O)N[C@H]3Cc4ccc(F)c(C(=O)O)c4OB3O)c3cc(F)c(O)c(O)c3Cl)C(=O)C2=O)CC1 (single isomer, unassigned) [Example 133] |  | MIC [3]: 0.25 µg/mL (≈ 0.384 µM); EC50 [1]: < 10 µM; MIC [4]: 0.5 to 1 µg/mL (≈ 0.767 to 1.53 µM); MIC [5]: 8 to 16 µg/mL (≈ 12.3 to 24.5 µM)
6 | CCN1CCN(C(=O)N[C@H](C(=O)N[C@H]2Cc3cccc(C(=O)O)c3OB2O)c2ccc(C(=O)O)c(F)c2F)C(=O)C1=O (single isomer, unassigned) [Example 139] | < 10 | 
7 | CCN1CCN(C(=O)N[C@@H](C(=O)N[C@H]2Cc3cccc(C(=O)O)c3OB2O)c2ccc(C(=O)O)c(F)c2F)C(=O)C1=O (single isomer, unassigned) [Example 140] | < 10 | 
8 | CCN1CCN(C(=O)N[C@@H](C(=O)N[C@H]2Cc3cccc(C(=O)O)c3OB2O)c2ccc(C(=O)O)c(F)c2)C(=O)C1=O (single isomer, unassigned) [Example 146] | < 10 | 
9 | CCN1CCN(C(=O)N[C@H](C(=O)N[C@H]2Cc3cccc(C(=O)O)c3OB2O)c2ccc(C(=O)O)c(F)c2)C(=O)C1=O (single isomer, unassigned) [Example 147] | < 10 | 
10 | CCN1CCN(C(=O)N[C@@H](C(=O)N[C@H]2Cc3cccc(C(=O)O)c3OB2O)c2cc(F)c(C(=O)O)cc2Cl)C(=O)C1=O (single isomer, unassigned) [Example 148] | < 10 | 
11 | CCN1CCN(C(=O)N[C@H](C(=O)N[C@H]2Cc3cccc(C(=O)O)c3OB2O)c2cc(F)c(C(=O)O)cc2Cl)C(=O)C1=O (single isomer, unassigned) [Example 149] | 30 to 100 | 
12 | CCN1CCN(C(=O)N[C@@H](C(=O)N[C@H]2Cc3cccc(C(=O)O)c3OB2O)c2ccc(C(=O)O)cc2Cl)C(=O)C1=O (single isomer, unassigned) [Example 151] | < 10 | 
13 | CCN1CCN(C(=O)N[C@H](C(=O)N[C@H]2Cc3cccc(C(=O)O)c3OB2O)c2ccc(C(=O)O)cc2Cl)C(=O)C1=O (single isomer, unassigned) [Example 152] | 10 to 30 | 
14 | CCN1CCN(C(=O)N[C@@H](C(=O)N[C@H]2Cc3cccc(C(=O)O)c3OB2O)c2ccc(C(=O)O)c(Cl)c2)C(=O)C1=O (single isomer, unassigned) [Example 154] | < 10 | 
15 | CCN1CCN(C(=O)N[C@H](C(=O)N[C@H]2Cc3cccc(C(=O)O)c3OB2O)c2ccc(C(=O)O)c(Cl)c2)C(=O)C1=O (single isomer, unassigned) [Example 155] | < 10 | 
16 | NCCN1CCN(C(=O)N[C@@H](C(=O)N[C@H]2Cc3cccc(C(=O)O)c3OB2O)c2cc(F)c(O)c(F)c2)C(=O)C1=O (single isomer, unassigned) [Example 159] | < 10 | 
17 | NCCN1CCN(C(=O)N[C@@H](C(=O)N[C@H]2Cc3cccc(C(=O)O)c3OB2O)c2cc(F)c(O)c(F)c2F)C(=O)C1=O (single isomer, unassigned) [Example 168] | < 10 | 
18 | CCN1CCN(C(=O)NC(C(=O)N[C@H]2Cc3cccc(C(=O)O)c3OB2O)c2cccc(C(=O)O)c2)C(=O)C1=O (stereo partly drawn) [Example 113, (3R)-3-(2-(3-carboxyphenyl)-2-(4-ethyl-2,3-dioxopiperazine-1-carboxamido)acetamido)-2-hydroxy-3,4-dihydro-2H-benzo[e][1,2]oxaborinine-8-carboxylic acid] | < 10 | 
19 | NCCN1CCN(C(=O)NC(C(=O)N[C@H]2Cc3cccc(C(=O)O)c3OB2O)c2c(F)c(F)c(O)c(F)c2F)C(=O)C1=O (stereo partly drawn) [Example 174, (3R)-3-(2-(4-(2-aminoethyl)-2,3-dioxopiperazine-1-carboxamido)-2-(2,3,5,6-tetrafluoro-4-hydroxyphenyl)acetamido)-2-hydroxy-3,4-dihydro-2H-benzo[e][1,2]oxaborinine-8-carboxylic acid] | < 10 | 
20 | CCN1CCN(C(=O)NC(C(=O)N[C@H]2Cc3cccc(C(=O)O)c3OB2O)c2c(F)c(F)c(O)c(F)c2F)C(=O)C1=O (stereo partly drawn) [Example 175, (3R)-3-(2-(4-ethyl-2,3-dioxopiperazine-1-carboxamido)-2-(2,3,5,6-tetrafluoro-4-hydroxyphenyl)acetamido)-2-hydroxy-3,4-dihydro-2H-benzo[e][1,2]oxaborinine-8-carboxylic acid] | < 10 | 
21 | CCN1CCN(C(=O)NC(C(=O)N[C@H]2Cc3cccc(C(=O)O)c3OB2O)c2c(F)cc(NS(N)(=O)=O)cc2F)C(=O)C1=O (stereo partly drawn) [Example 176, (3R)-3-(2-(2,6-difluoro-4-(sulfamoylamino)phenyl)-2-(4-ethyl-2,3-dioxopiperazine-1-carboxamido)acetamido)-2-hydroxy-3,4-dihydro-2H-benzo[e][1,2]oxaborinine-8-carboxylic acid] | < 10 | 
22 | NCCN1CCN(C(=O)NC(C(=O)N[C@H]2Cc3cccc(C(=O)O)c3OB2O)c2c(F)cc(NS(N)(=O)=O)cc2F)C(=O)C1=O (stereo partly drawn) [Example 177, (3R)-3-(2-(4-(2-aminoethyl)-2,3-dioxopiperazine-1-carboxamido)-2-(2,6-difluoro-4-(sulfamoylamino)phenyl)acetamido)-2-hydroxy-3,4-dihydro-2H-benzo[e][1,2]oxaborinine-8-carboxylic acid] | 10 to 30 | 
23 | NCCCN1CCN(C(=O)NC(C(=O)N[C@H]2Cc3ccc(F)c(C(=O)O)c3OB2O)c2c(F)cc(O)cc2F)C(=O)C1=O (stereo partly drawn) [Example 178, (3R)-3-(2-(4-(3-aminopropyl)-2,3-dioxopiperazine-1-carboxamido)-2-(2,6-difluoro-4-hydroxyphenyl)acetamido)-7-fluoro-2-hydroxy-3,4-dihydro-2H-benzo[e][1,2]oxaborinine-8-carboxylic acid] | > 100 | 

— US20230114728A1 (Venatorx Pharmaceuticals, Inc., priority 2019, published 2023)
